According to patent US10022354B2, “Pyrrolidine amide compounds as histone demethylase inhibitors” (GENENTECH, INC., priority 2014, dated 2018):

Experiments:
[1] = test system: H3K4Me3 mark level in PC9 cells; experiment: KDM5 Cell Assay (H3K4Me3 mark level, PC9 HTRF); format: cell-based; conditions: Homo sapiens, PC-9, 120 hours at 37° C.
Description: PC9 cells were seeded in a 384 well plate (2000 cells/well) with a test compound and incubated for 120 hours at 37° C. H3K4Me3 mark level was assessed using HTRF reagents from CisBio. Briefly, media was removed and cells were lysed in 20 μL of Epigeneous Cell Histone lysis buffer C for 45 min at 26° C., shaking. 10 μL of 4 μg/mL acceptor antibody (H3K4me3-d2) and 10 μL of 1.2 μg/mL donor antibody (Total H3-K) in Cell Histone detection buffer were added and the mixture was incubated at 26° C. for 1 hour. Assay plate was read subsequently on Envision (Perkin Elmer). Each compound was run in duplicate. Data were normalized to DMSO treated wells as the low response and EC50's were calculate using a four-parameter fit.

full length KDM5A enzyme = full length KDM5A enzyme (Homo sapiens (Human), UniProt P29375); experiment: KDM5 Enzyme Assay (KDM5A HTRF); format: biochemical; conditions: 2 nM full length KDM5A, 100 nM H3K4Me3 peptide, 1 uM 2-OG, 30 min room temperature
full length KDM5A enzyme, sequence (P29375 whole entry): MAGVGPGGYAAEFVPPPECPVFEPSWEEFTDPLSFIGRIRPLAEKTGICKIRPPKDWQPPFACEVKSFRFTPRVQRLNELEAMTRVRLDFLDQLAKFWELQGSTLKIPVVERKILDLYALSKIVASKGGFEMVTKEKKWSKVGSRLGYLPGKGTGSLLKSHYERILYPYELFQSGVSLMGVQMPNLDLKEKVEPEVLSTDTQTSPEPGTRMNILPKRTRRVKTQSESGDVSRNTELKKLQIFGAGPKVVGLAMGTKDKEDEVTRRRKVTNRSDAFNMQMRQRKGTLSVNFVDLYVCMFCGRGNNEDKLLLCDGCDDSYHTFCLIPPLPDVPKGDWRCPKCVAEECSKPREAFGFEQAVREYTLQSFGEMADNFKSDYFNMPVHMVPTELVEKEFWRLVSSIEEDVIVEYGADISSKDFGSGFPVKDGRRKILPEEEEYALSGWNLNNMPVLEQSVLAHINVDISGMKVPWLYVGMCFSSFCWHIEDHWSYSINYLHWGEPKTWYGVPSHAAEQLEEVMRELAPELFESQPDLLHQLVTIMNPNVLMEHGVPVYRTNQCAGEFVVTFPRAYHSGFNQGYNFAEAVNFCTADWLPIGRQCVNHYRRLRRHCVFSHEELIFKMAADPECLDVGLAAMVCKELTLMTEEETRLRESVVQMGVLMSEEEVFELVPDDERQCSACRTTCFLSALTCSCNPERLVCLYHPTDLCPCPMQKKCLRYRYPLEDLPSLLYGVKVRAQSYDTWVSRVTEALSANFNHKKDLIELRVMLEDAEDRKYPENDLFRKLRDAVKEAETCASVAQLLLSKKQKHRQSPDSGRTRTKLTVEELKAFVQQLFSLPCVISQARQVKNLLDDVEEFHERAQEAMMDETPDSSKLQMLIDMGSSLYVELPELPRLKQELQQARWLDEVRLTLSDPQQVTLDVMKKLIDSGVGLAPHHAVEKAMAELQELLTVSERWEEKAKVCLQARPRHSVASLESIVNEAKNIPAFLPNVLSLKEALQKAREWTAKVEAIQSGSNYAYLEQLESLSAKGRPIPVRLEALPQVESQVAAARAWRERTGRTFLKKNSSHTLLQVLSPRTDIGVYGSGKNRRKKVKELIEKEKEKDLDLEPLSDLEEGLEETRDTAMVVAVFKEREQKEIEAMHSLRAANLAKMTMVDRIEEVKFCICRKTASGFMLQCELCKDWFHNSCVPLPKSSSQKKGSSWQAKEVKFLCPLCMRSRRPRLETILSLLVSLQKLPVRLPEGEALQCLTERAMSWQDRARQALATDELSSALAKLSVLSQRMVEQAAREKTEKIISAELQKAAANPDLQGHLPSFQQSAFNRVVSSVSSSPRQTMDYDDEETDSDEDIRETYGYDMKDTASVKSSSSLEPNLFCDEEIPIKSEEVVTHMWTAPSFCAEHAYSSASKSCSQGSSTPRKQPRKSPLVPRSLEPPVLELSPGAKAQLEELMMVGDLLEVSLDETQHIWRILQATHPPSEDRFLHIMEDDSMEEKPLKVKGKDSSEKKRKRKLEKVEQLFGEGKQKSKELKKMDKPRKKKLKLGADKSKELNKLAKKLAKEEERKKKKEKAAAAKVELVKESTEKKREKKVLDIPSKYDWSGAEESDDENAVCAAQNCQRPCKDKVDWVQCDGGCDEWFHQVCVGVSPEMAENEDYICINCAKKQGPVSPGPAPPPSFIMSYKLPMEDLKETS
Outline: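 KDM5A demethylase activity was assessed by HTRF using in-house expressed and purified full length human KDM5A at 2 nM with 100 nM biotinylated H3K4Me3 peptide and 1 uM 2-OG. The 10 uL reaction also held 100 uM Fe^2+, 500 uM ascorbate, 50 mM HEPES pH 7.0, 0.01% Triton-X 100, 2 mM DTT and 0.25% DMSO. Detection used Eu-labeled H3K4me1-2 antibody and streptavidin-XL665, read on an Envision reader.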

EC50 [1] [nM]	IC50 (full length KDM5A enzyme) [nM]	SMILES
23	0.57	CC(C)c1cc(C(=O)N2CCC(c3cc(-c4cnn(C)c4)ccn3)C2)[nH]n1 (centres unmarked) [Example 12, (3-Isopropyl-1H-pyrazol-5-yl)(3-(4-(1-methyl-1H-pyrazol-4-yl)pyridin-2-yl)pyrrolidin-1-yl) Methanone]
4.4	0.059	CC(C)c1cc(C(=O)N2CCC(NC(=O)C3(C)CC3)C2)[nH]n1 (centres unmarked) [Example 128]
23	0.3	CC(C)c1cc(C(=O)N2CC[C@@H](n3ncc4c(F)cccc43)C2)[nH]n1 [Example 246]
4.9	0.076	CC(C)c1cc(C(=O)N2CCC(NC(=O)c3ccc4cc[nH]c4n3)C2)[nH]n1 (centres unmarked) [Example 135]
2.1	0.051	CC(C)c1cc(C(=O)N2CC[C@@H](NC(=O)C3(F)CC3)C2)[nH]n1 [Example 221]
1.1	0.078	CC(C)c1cc(C(=O)N2CC[C@@H](NC(=O)C3CC34CC4)C2)[nH]n1 (some centres unmarked) [Example 228]
0.93	0.049	CC(C)c1cc(C(=O)N2CC[C@@H](NC(=O)C3CC3)C2)[nH]n1 [Example 29, (R)—N-(1-(3-isopropyl-1H-pyrazole-5-carbonyl)pyrrolidin-3-yl)cyclopropane Carboxamide]
30	0.74	CC(C)c1cc(C(=O)N2CCC(n3cc(Br)cn3)C2)[nH]n1 (centres unmarked) [Example 59]
15	0.14	CC(C)c1cc(C(=O)N2CCC(N3Cc4ccccc4C3=O)C2)[nH]n1 (centres unmarked) [Example 30, 2-(1-(3-Isopropyl-1H-pyrazole-5-carbonyl)pyrrolidin-3-yl)isoindolin-1-one]
11	0.12	CC(CCc1ccccc1)c1cc(C(=O)N2CCC(NC(=O)C3CC3)C2)[nH]n1 (centres unmarked) [Example 212]
11	0.12	CC(CCCc1ccccc1)c1cc(C(=O)N2CCC(NC(=O)C3CC3)C2)n[nH]1 (centres unmarked) [Example 22, N-(1-(5-(5-phenylpentan-2-yl)-1H-pyrazole-3-carbonyl)pyrrolidin-3-yl) cyclopropanecarboxamide]
19	0.16	CC(C)c1cc(C(=O)N2CCC(n3cc(Br)c(C4CC4)n3)C2)[nH]n1 (centres unmarked) [Example 234]
2.5	0.16	CC(C)c1cc(C(=O)N2C[C@H](NC(=O)C3CC3)C3(CC3)C2)[nH]n1 [Example 220]
1.8	0.046	CC(C)c1cc(C(=O)N2C[C@H](NC(=O)C3CC3)[C@@H](O)C2)[nH]n1 [Example 219]
8.6	0.2	CC(C)c1cc(C(=O)N2CCC(NC(=O)C3(O)CC3)C2)[nH]n1 (centres unmarked) [Example 171]
3.2	0.065	CCCOc1ccccc1C(=O)NC1CCN(C(=O)c2cc(C(C)C)n[nH]2)C1 (centres unmarked) [Example 180]
6.7	0.16	O=C(NC1CCN(C(=O)c2cc(C3CCC3)n[nH]2)C1)C1CC1 (centres unmarked) [Example 210]
3.3	0.087	CC(C)c1cc(C(=O)N2CCC(NC(=O)NC3CC3)C2)[nH]n1 (centres unmarked) [Example 33, 1-Cyclopropyl-3-(1-(3-isopropyl-1H-pyrazole-5-carbonyl)pyrrolidin-3-yl)urea]
1.4	0.074	CC(C)c1cc(C(=O)N2CC[C@@H](NC(=O)C3(C)CC3)C2)[nH]n1 [Example 224]
2.5	0.054	CC(C)c1cc(C(=O)N2CCC(NC(=O)c3ccccc3OCc3ccccc3)C2)[nH]n1 (centres unmarked) [Example 136]
6.4	0.071	CC(C)c1cc(C(=O)N2CCC(NC(=O)C3(C)CCC3)C2)[nH]n1 (centres unmarked) [Example 134]
6.8	0.051	CC(C)c1cc(C(=O)N2CC[C@@H](n3cccc(C4CC4)c3=O)C2)[nH]n1 [Example 41, (R)-3-cyclopropyl-1-(1-(3-isopropyl-1H-pyrazole-5-carbonyl)pyrrolidin-3-yl)pyridin-2(1H)-one]
3.7	0.058	Cc1cccn(C2CCN(C(=O)c3cc(C(C)C)n[nH]3)C2)c1=O (centres unmarked) [Example 40, 1-(1-(3-Isopropyl-1H-pyrazole-5-carbonyl)pyrrolidin-3-yl)-3-methylpyridin-2(1H)-one]
1.3	0.025	CC(C)c1cc(C(=O)N2CC[C@@H](NC(=O)[C@H]3C[C@H]3F)C2)[nH]n1 [Example 222]
7	0.15	CC(C)c1cc(C(=O)N2CCC(n3cc(Br)c(C(C)C)n3)C2)[nH]n1 (centres unmarked) [Example 238]
